# From ChEMBL document CHEMBL1201862, “PubChem BioAssay data set” (2004)
# The source made the active and inactive calls.
# Experiments:
# Salmon testes DNA = assay: DNA intercalators displacing acridine orange, dose response, artefact control for KSHV LANA DNA-binding inhibitor project, biochemical, fluorescence polarization, cherry-picked samples, set 2 (AID 504727); set-up: species or system Salmonidae
# ORF 73 = ORF 73 (Human herpesvirus 8, UniProt O40947); assay: inhibitors of C-LANA binding to LBS DNA, dose response, biochemical, fluorescence polarization, cherry-picked samples (AID 504725); set-up: species or system Human gammaherpesvirus 8;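 note: fluorescence polarization of a labeled DNA duplex reporting LANA DNA binding; potency is for inhibitors that block LANA binding to the DNA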
# Keap1/Nrf2 = Keap1/Nrf2 (Homo sapiens, UniProt Q14145); assay: Keap1-Nrf2 protein-protein interaction inhibitors, dose response, biochemical, fluorescence polarization, cherry-picked samples (AID 588683)
# [1] = target: T1, Mannose-6-phosphate isomerase (Homo sapiens, UniProt P34949); assay: Confirmation of compounds inhibiting phosphomannose isomerase (PMI) via a fluorescence intensity assay using a high concentration of mannose 6-phosphate. [Related pubchem assays (depositor defined):AID1209, AID1220, AID1545, AID1553, AID1620]
# T1 sequence (P34949 whole entry): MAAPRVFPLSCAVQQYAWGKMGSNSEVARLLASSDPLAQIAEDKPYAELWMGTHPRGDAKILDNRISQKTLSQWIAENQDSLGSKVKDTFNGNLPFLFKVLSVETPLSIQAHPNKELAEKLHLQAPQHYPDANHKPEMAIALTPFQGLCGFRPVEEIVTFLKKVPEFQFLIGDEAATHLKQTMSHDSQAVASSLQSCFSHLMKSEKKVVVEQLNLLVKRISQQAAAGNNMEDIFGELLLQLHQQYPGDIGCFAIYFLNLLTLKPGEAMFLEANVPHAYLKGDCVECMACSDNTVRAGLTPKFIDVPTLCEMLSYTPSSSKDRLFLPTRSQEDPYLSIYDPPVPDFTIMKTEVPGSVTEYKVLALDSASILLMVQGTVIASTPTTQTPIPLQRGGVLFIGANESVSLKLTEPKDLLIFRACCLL
# [2] = target: T1, Mannose-6-phosphate isomerase; assay: PMI enzyme inhibitors, confirmation, biochemical, fluorescence intensity (AID 1535)
# [3] = target: Alkaline phosphatase, placental type (Homo sapiens, UniProt P05187); assay: PLAP enzyme inhibitors, confirmation, biochemical, luminescence (AID 1512); assay type: functional
# [4] = inhibition of K1F phage lysis, E. coli UTI89, bacterial capsule biogenesis inhibitors, alamar blue (AID 488966); assay type: functional
# [5] = target: T2, Short transient receptor potential channel 4 (Mus musculus, UniProt Q9QUQ5); assay: mouse TRPC4 channel inhibitors, dose response, cell-based, HEK293 TRPC4/mu-opioid, Fluo-4 calcium (AID 434942); assay type: functional;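 note: potency of inhibitors blocking the TRPC4 calcium response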
# T2 sequence (Q9QUQ5 whole entry): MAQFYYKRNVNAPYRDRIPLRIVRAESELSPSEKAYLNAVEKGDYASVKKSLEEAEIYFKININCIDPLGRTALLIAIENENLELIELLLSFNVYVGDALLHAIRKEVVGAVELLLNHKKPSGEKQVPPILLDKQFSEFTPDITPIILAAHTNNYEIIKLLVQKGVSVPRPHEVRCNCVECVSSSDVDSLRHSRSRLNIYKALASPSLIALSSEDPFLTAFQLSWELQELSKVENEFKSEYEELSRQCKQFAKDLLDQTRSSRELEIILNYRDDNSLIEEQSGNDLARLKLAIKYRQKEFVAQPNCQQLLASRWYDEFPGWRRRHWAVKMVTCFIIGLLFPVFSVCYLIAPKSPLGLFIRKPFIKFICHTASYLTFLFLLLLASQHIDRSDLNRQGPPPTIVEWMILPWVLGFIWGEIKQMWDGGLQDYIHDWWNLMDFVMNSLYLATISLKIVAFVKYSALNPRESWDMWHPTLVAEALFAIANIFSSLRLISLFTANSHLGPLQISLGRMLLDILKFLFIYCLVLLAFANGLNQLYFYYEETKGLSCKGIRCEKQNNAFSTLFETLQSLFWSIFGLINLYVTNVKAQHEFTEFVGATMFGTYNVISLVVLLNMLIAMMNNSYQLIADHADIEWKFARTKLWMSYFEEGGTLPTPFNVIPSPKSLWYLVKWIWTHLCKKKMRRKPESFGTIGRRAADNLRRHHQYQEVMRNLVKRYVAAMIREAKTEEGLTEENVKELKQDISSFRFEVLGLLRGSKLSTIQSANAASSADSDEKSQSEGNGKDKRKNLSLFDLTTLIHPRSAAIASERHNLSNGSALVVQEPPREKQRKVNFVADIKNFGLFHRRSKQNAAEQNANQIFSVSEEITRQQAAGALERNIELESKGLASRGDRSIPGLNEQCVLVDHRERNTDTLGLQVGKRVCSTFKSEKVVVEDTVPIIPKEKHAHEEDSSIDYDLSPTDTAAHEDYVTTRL
# [6] = Cytotoxicity screening for potential Inhibitors of Bacterial Capsule Biogenesis. [Related pubchem assays (depositor defined):AID488970]; assay type: functional
# MDA-MB-435 = assay: cells; assay type: functional, cell-based; settings: Homo sapiens
# cells = assay type: functional, cell-based; settings: PPC-1
# X-box-binding protein 1 = X-box-binding protein 1 (Homo sapiens, UniProt P17861); assay type: functional, Cricetulus griseus;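 note: confirmatory dose-response counter-screen serving a CHOP assay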
# [7] = target: T3, High affinity choline transporter 1 (Homo sapiens, UniProt Q9GZV3); assay: CHT inhibitors, dose response, cell-based, 5-point CRC, membrane potential dye (AID 504840); assay type: functional
# T3 sequence (Q9GZV3 whole entry): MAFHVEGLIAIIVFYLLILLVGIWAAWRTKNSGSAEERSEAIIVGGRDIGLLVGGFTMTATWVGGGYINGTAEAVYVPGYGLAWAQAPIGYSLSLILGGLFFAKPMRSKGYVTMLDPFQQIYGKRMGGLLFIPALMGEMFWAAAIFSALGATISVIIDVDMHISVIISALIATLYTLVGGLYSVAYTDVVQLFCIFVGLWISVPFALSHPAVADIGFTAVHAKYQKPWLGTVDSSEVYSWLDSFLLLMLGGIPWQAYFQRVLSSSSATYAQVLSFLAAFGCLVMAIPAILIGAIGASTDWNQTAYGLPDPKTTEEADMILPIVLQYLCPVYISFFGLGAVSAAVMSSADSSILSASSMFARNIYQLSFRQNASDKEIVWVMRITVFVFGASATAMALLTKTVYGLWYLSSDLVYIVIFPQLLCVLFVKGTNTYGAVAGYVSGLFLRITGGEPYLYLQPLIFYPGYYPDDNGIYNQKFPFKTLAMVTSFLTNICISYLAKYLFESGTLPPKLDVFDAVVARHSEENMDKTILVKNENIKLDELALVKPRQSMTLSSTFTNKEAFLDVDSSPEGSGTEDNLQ
# Melanocortin receptor 4 = Melanocortin receptor 4 (Homo sapiens, UniProt P32245); assay: MC4R antagonist potency on cAMP, dose response, cell-based, TR-FRET, biased antagonists (AID 602298); assay type: functional;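 note: antagonist potency against agonist-stimulated cAMP production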
# [8] = nonselective inhibitors of cellular cAMP signaling, dose response, counter-screen for MC4R biased antagonist project, cell-based, TR-FRET cAMP detection (AID 602305); assay type: functional;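 note: U2OS cells stimulated with forskolin near its EC80 as the cAMP inducer; potency is for inhibition of forskolin-stimulated cAMP signaling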
# Trypsin = Trypsin (Sus scrofa, UniProt P00761); assay: porcine trypsin inhibitors, dose response, selectivity assay for Rce1 protease inhibitor project, biochemical, quenched peptide fluorescence, cherry-pick (AID 488789)
# CAAX prenyl protease 2 = CAAX prenyl protease 2 (Homo sapiens, UniProt Q9Y256); assay: human Rce1 protease inhibitors, dose response, biochemical, yeast membranes, quenched-peptide fluorescence, cherry-pick (AID 588849)
# Mu-type opioid receptor = Mu-type opioid receptor (Homo sapiens, UniProt P35372); assay: SAR Analysis of Antagonists of the MOR Receptor using an Image-Based Assay - Set 3. [Related pubchem assays (depositor defined):AID1777, AID1785, AID1786, AID1966, AID2133, AID2136, AID2284, AID2285, AID2420]; assay type: functional
# [9] = target: T4, Kappa-type opioid receptor (Homo sapiens, UniProt P41145); assay: SAR analysis of small molecule antagonists of the kappa opioid receptor via a luminescent beta-arrestin assay - Set 4. [Related pubchem assays (depositor defined):AID1777, AID1778, AID1785, AID1786, AID1966, AID2133, AID2136, AID2285]; assay type: functional
# [10] = target: Delta-type opioid receptor (Homo sapiens, UniProt P41143); assay: SAR Analysis of Antagonists of the DOR Receptor using an Image-Based Assay - Set 3. [Related pubchem assays (depositor defined):AID1777, AID1785]; assay type: functional;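 note: U2OS cells expressing DOR1 and beta-arrestin GFP stimulated with 100 nM SNC80; imaging of GFP-tagged beta-arrestin moving into spots after receptor activation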
# [11] = target: T4, Kappa-type opioid receptor; assay: SAR analysis of Antagonists of the Kappa Opioid Receptor (KOR) using an Image-Based Assay - Set 4. [Related pubchem assays (depositor defined):AID1777, AID1785]; assay type: functional
# [12] = Luminescence Cell-Based Dose Response to Identify Activators of 5'UTR Stem-Loop Driven Prion Protein mRNA Translation in H4-C Neuroglioblastoma Cells. [Related pubchem assays: 1829 (Project Summary), 1814 (Primary HTS)]; assay type: functional
# [13] = Luminescence Cell-Based Dose Response HTS to Identify Activators of Luciferase Translation or Activity in H4 […] Cells. [Related pubchem assays: 1829 (Project Summary), 1814 (Primary HTS)]; assay type: functional
# H4 = assay: Luminescence Cell-Based Dose Response HTS to Identify Activators of 5'UTR Stem-Loop Driven Prion Protein mRNA Translation in H4 Neuroglioblastoma Cells. [Related pubchem assays: 1829 (Project Summary), 1814 (Primary HTS)]; assay type: functional; settings: Homo sapiens
# [14] = Luminescence Cell-Based Dose Response to Identify Activators of Luciferase Translation or Activity in H4-C Neuroglioblastoma Cells. [Related pubchem assays: 1829 (Project Summary), 1814 (Primary HTS)]; assay type: functional
# [15] = Luminescence Cell-Based Dose Confirmation to Identify Activators of 5'UTR Stem-Loop Driven Alpha-Synuclein mRNA Translation in H4 Neuroglioblastoma Cells. [Related pubchem assays: 1829 (Project Summary), 1814 (Primary HTS)]; assay type: functional
# [16] = target: NACHT, LRR and PYD domains-containing protein 3 (Homo sapiens, UniProt Q96P20); assay: NALP3 inhibitors in yeast, dose response, luminescent (AID 488799); assay type: functional
# [17] = Luminescence Cell-Based Dose Response HTS to Identify Activators of Luciferase Translation or Activity in H4-C Neuroglioblastoma Cells. [Related pubchem assays: 1829 (Project Summary), 1814 (Primary HTS)]; assay type: functional
# [18] = Luminescence Cell-Based Dose Retest to Confirm Activators of 5'UTR Stem-Loop Driven Alpha-Synuclein mRNA Translation in H4 Neuroglioblastoma Cells. [Related pubchem assays (depositor defined):AID1813, AID1829]; assay type: functional
# [19] = Luminescence Cell-Based Dose Response HTS to Identify Activators of 5'UTR Stem-Loop Driven Prion Protein mRNA Translation in H4-C Neuroglioblastoma Cells. [Related pubchem assays: 1829 (Project Summary), 1814 (Primary HTS)]; assay type: functional
# [20] = Luminescence Cell-Based Dose Confirmation HTS to Identify Activators of 5'UTR Stem-Loop Driven Alpha-Synuclein mRNA Translation in H4 Neuroglioblastoma Cells. [Related pubchem assays: 1829 (Project Summary), 1814 (Primary HTS)]; assay type: functional
# [21] = target: T5, Voltage-gated N-type calcium channel alpha-1B subunit/Amyloid beta A4 precursor protein-binding family A member 1 (Homo sapiens, UniProt Q00975+Q02410); assay type: protein assay
# Large T antigen = Large T antigen (Simian virus 40, UniProt P03070); assay type: functional, Betapolyomavirus macacae;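 note: Confirmatory-stage PubChem screen for compounds that inhibit SV40 T antigen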
# [22] = target: T5, Voltage-gated N-type calcium channel alpha-1B subunit/Amyloid beta A4 precursor protein-binding family A member 1; assay type: protein assay; remark: listed apart in the source
# [23] = target: T5, Voltage-gated N-type calcium channel alpha-1B subunit/Amyloid beta A4 precursor protein-binding family A member 1; assay: disruptors of Mint-PDZ/N-type channel peptide interaction – biochemical, HTRF, SAR follow-up (AID 2489); assay type: functional
# Cytochrome P450 2C19 = Cytochrome P450 2C19 (Homo sapiens, UniProt P33261); assay: Cytochrome panel assay with activity outcomes. Panel member name: p450-cyp2c19 Compounds with AC50 equal or less than 10 uM are considered active; assay type: functional; settings: read-out: AC50
# Cytochrome P450 2C9 = Cytochrome P450 2C9 (Homo sapiens, UniProt P11712)
# T5 sequence (Q00975 whole entry): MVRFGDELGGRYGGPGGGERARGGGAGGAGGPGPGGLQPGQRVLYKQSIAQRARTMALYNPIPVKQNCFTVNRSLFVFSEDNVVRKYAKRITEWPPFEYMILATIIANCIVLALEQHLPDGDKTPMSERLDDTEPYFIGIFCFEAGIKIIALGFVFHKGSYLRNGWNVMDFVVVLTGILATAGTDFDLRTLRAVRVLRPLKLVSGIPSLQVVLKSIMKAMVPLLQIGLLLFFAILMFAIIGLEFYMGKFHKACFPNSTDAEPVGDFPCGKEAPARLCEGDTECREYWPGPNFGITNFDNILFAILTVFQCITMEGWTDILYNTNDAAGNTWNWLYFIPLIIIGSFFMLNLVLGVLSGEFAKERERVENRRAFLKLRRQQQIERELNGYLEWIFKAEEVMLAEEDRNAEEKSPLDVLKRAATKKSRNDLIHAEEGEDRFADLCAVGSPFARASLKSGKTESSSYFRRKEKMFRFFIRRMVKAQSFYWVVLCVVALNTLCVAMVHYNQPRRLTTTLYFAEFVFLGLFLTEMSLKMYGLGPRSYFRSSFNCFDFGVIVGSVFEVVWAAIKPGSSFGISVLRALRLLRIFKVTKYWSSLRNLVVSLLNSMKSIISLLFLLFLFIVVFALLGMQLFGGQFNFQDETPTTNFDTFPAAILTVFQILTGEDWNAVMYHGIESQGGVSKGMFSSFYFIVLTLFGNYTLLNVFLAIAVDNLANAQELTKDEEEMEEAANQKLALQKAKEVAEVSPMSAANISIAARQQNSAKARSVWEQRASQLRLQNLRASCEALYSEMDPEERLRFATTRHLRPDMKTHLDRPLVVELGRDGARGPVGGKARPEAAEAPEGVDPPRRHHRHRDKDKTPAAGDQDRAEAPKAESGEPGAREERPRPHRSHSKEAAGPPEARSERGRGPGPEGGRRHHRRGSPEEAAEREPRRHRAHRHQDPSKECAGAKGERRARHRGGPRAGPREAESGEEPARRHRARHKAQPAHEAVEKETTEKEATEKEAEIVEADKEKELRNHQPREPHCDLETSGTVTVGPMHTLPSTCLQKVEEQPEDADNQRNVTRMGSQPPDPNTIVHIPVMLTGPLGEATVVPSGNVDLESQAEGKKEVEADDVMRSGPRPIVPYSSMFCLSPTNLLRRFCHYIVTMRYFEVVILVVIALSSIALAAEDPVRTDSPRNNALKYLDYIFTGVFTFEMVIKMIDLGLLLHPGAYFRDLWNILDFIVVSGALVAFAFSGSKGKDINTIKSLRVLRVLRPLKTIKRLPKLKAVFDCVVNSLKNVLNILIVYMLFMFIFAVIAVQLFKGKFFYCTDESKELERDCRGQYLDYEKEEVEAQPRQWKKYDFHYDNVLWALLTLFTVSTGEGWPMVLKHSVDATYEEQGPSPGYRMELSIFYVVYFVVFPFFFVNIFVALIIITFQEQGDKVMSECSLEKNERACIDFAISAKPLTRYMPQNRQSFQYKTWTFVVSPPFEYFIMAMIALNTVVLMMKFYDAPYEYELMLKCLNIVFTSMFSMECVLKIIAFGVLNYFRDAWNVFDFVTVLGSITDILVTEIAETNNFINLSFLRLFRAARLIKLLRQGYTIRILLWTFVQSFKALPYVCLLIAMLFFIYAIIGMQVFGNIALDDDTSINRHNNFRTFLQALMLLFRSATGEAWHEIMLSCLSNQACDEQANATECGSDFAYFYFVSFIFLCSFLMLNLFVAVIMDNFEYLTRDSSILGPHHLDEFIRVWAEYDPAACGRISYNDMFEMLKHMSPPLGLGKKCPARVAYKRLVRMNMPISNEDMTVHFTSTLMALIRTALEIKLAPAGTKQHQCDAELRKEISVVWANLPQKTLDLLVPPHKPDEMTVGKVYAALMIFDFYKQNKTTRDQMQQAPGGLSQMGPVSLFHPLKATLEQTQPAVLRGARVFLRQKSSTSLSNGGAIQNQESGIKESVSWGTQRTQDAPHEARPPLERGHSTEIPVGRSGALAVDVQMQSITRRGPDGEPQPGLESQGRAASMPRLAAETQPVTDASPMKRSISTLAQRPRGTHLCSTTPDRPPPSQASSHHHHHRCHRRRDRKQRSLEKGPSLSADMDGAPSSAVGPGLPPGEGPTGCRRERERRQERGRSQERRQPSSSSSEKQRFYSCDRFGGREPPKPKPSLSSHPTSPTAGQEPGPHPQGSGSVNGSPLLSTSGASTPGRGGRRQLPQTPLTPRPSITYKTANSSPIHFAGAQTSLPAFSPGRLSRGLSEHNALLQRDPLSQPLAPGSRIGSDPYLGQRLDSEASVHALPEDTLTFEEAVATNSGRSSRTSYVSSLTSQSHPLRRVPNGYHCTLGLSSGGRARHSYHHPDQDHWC
# T5 sequence (Q02410 whole entry): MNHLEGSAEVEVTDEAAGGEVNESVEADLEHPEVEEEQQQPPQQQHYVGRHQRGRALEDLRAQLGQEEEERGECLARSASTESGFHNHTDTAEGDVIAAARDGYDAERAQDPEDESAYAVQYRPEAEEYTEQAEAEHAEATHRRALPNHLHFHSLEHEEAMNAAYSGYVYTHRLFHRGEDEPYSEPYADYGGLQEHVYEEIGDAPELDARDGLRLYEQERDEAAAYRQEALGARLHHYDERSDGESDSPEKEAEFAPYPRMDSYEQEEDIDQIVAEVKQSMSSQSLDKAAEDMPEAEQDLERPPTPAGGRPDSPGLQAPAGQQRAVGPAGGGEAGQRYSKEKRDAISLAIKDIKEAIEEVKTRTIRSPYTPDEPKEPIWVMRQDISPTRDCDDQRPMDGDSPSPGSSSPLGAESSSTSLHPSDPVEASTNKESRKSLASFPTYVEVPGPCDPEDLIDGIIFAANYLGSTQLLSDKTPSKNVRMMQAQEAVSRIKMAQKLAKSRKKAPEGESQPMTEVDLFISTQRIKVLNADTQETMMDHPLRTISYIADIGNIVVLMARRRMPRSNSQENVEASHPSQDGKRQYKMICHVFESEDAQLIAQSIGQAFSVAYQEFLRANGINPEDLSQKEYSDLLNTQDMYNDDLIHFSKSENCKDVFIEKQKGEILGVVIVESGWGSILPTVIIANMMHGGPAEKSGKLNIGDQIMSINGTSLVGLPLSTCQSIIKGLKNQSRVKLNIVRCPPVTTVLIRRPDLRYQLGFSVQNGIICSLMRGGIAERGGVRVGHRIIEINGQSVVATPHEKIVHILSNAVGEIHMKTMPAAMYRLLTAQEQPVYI
# T4 sequence (P41145 whole entry): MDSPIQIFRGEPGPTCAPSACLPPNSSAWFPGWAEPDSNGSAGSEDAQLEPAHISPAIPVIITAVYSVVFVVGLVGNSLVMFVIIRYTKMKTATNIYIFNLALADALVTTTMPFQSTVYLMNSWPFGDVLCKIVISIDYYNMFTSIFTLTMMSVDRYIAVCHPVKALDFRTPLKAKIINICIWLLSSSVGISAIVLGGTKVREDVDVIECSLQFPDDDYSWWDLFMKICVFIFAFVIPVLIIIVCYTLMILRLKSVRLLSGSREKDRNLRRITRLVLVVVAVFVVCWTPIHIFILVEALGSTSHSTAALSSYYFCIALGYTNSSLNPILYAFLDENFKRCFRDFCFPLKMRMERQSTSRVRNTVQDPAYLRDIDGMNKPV
# Chain of ORF 73 (O40947 whole entry): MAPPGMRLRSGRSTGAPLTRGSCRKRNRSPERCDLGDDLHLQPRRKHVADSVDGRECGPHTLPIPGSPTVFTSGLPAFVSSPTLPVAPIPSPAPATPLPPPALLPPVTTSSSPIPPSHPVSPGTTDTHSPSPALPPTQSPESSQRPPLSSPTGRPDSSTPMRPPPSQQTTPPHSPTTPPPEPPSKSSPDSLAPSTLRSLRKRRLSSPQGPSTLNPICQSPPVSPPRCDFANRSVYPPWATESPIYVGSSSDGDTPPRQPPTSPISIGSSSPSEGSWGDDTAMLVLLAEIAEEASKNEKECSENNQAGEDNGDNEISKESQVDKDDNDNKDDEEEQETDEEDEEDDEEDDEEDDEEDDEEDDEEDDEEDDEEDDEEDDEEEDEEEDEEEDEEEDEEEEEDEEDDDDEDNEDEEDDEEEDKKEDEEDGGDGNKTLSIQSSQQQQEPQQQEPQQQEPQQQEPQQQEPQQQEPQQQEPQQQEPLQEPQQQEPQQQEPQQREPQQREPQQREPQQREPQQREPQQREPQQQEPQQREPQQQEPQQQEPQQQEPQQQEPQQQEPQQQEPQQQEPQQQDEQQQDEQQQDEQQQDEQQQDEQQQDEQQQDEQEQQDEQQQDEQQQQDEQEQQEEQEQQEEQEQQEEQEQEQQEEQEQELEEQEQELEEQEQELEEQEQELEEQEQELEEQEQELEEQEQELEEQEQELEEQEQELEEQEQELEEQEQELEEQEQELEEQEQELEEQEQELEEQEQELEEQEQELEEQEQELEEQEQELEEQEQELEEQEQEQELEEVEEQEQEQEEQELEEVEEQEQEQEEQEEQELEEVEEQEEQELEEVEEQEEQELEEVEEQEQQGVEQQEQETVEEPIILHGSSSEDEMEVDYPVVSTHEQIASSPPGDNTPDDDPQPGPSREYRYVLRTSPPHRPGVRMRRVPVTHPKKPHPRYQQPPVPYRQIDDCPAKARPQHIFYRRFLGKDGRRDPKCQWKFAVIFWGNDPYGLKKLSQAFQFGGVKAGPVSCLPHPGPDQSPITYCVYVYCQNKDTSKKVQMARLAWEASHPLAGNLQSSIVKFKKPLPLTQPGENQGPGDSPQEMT
# Chain of Trypsin (P00761 whole entry): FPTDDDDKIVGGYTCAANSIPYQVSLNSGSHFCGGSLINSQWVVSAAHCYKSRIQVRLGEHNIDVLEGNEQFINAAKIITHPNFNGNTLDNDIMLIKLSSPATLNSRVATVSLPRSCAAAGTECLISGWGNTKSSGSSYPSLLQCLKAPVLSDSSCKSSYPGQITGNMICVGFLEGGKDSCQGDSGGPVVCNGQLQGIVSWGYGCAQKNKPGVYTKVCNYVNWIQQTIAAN
smiles,measurement,setting,value
Cc1oc2cc(O)ccc2c(=O)c1-c1nncn1-c1ccccc1,AC50,Salmon testes DNA,49.4 µM (active)
same,AC50,ORF 73,26.6 µM (active)
same,AC50,Keap1/Nrf2,43.4 µM (active)
CCN1C(=O)C2(NNc3ccccc3O2)c2ccccc21 (stereo not drawn),IC50,[1],> 100 µM (inactive)
same,IC50,[2],> 100 µM (inactive)
same,IC50,[3],> 100 µM (inactive)
COc1cc(/C=C/C(=O)NC(=O)c2ccccc2O)ccc1OC(C)=O,IC50,[4],> 150 µM (active)
CCOc1ccc(-c2cc(NC(=O)c3c(F)cccc3F)c(C(=O)O)s2)cc1,EC50,[5],2.99 µM (active)
same,CC50,[6],66.7 µM (active)
CSc1nc(-c2ccccc2)nc(-c2ccccc2)n1,IC50,MDA-MB-435,> 10 µM (inactive)
same,IC50,cells,> 10 µM (inactive)
COc1cccc(C(=O)C(C#N)=C(SC)SC)c1,Absolute IC50 (XBP1),X-box-binding protein 1,10 µM
same,IC50,[7],11.2 µM (active)
same,IC50,Melanocortin receptor 4,> 64.6 µM (inactive)
same,IC50,[8],> 64.6 µM (inactive)
Cc1cc(NC(=O)COC(=O)c2nccnc2N)n(-c2ccccc2)n1,AC50,Trypsin,25.9 µM (active)
same,AC50,CAAX prenyl protease 2,1.84 µM (active)
Cc1ccc(S(=O)(=O)NCc2ccc(C(=O)NC3CCN(Cc4ccccc4)CC3)cc2)cc1,IC50,Mu-type opioid receptor,> 32 µM (inactive)
same,IC50,[9],> 20 µM (inactive)
same,IC50,[10],> 32 µM (inactive)
same,IC50,[11],> 32 µM (inactive)
Nc1ccc(Oc2cc(N)cc(Oc3ccccc3)c2)cc1,EC50,[12],2.5 µM (active)
same,EC50,[13],< 0.1 µM (active)
same,EC50,H4,20.4 µM (active)
same,EC50,[14],> 12 µM (not active)
same,EC50,[15],1.22 µM (active)
same,IC50,[16],4.74 µM (active)
COc1cccc(Nc2nnc(SCc3nc4ccccc4s3)s2)c1,EC50,[17],2.15 µM (active)
same,EC50,[18],1.31 µM (active)
same,EC50,[19],4.9 µM (active)
same,EC50,[20],27.4 µM (active)
same,EC50,[13],46.8 µM (active)
Nc1ccc(-c2nc3ccc(N)c(Cl)c3[nH]2)cc1,IC50,[21],1.94 µM (active)
same,IC50,Large T antigen,7.64 µM (active)
same,IC50,[22],9.64 µM (active)
same,IC50,[23],11.6 µM (active)
same,AC50,Cytochrome P450 2C19,6.31 µM (inconclusive)
same,AC50,Cytochrome P450 2C9,0.112 µM (inconclusive)
